The source made the active and inactive calls. The calls are words filed in the database; no cut-off is given here.
Biological target: Histone acetyltransferase GCN5 (Plasmodium falciparum (isolate 3D7)) (UniProt Q8IB67)
Test: Inhibition of GCN5 in Plasmodium falciparum 3D7 assessed as reduction in H3K9 acetylation at 25 uM incubated for 15 mins measured by SDS-PAGE analysis

Sequence of Histone acetyltransferase GCN5 (Plasmodium falciparum (isolate 3D7)) (Q8IB67 as listed by the source): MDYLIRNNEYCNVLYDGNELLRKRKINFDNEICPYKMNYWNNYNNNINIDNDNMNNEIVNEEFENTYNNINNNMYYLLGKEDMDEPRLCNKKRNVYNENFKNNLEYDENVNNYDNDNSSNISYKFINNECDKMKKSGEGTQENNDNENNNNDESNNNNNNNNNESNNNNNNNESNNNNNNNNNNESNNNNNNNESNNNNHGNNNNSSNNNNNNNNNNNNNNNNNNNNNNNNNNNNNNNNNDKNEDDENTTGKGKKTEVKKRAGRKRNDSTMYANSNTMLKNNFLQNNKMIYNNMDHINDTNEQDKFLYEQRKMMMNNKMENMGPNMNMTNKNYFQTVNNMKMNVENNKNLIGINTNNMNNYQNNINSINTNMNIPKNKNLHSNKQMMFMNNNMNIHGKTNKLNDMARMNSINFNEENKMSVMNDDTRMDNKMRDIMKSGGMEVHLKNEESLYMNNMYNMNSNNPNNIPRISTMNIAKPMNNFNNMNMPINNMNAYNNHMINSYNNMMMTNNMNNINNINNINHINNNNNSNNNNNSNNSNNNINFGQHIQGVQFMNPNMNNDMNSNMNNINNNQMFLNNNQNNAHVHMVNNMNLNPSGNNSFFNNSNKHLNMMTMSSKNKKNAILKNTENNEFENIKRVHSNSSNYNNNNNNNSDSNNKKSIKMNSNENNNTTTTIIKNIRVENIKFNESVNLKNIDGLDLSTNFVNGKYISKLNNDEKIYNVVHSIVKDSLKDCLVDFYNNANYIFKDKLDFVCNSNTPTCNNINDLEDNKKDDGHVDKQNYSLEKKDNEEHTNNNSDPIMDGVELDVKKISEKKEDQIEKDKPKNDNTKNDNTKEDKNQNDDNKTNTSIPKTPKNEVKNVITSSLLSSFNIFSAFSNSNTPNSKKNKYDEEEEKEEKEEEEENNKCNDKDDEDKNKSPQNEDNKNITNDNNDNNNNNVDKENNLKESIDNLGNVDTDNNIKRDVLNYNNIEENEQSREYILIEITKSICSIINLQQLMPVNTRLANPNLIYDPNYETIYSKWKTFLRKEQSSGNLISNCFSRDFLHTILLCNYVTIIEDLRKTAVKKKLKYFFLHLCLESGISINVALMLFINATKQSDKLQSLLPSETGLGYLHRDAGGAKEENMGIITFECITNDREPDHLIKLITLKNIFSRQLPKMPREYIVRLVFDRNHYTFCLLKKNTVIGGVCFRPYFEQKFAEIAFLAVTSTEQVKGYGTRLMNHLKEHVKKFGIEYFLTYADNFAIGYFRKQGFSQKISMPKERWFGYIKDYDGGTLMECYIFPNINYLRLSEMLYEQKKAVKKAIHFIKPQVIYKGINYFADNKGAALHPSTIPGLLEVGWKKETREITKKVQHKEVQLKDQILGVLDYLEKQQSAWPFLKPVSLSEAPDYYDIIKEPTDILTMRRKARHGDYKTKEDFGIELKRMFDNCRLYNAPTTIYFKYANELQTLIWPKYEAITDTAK

CCCCCCCCCCCC1=C(O)C(=O)C=C(O)C1=O
inhibition: Active

Source: ChEMBL document CHEMBL4190226, “Designing novel inhibitors against histone acetyltransferase (HAT: GCN5) of Plasmodium falciparum” (Eur J Med Chem, 2017)
